According to ChEMBL document CHEMBL3885881, “DrugMatrix”:

Organism: Rattus norvegicus
Test: DrugMatrix - Regimen: Daily Repeat
Assay type: toxicity, organism-based, Sprague-Dawley
Parameters: regimen Daily Repeat, gender Male, age 6-8 weeks
Settings: in vivo, po, 0 mg/kg, route oral GAVAGE, dose level Control, vehicle .5 % CMC; for ABSOLUTE BASOPHIL / ABSOLUTE EOSINOPHIL / ABSOLUTE LYMPHOCYTE / ABSOLUTE MONOCYTE / ABSOLUTE SEGMENTED NEUTROPHIL / BASOPHIL / EOSINOPHIL / ERYTHROCYTE COUNT / HEMATOCRIT / HEMOGLOBIN / LEUKOCYTE COUNT / LYMPHOCYTE / MEAN CORPUSCULAR HEMOGLOBIN / MEAN CORPUSCULAR HEMOGLOBIN CONCENTRATION / MEAN CORPUSCULAR VOLUME / MONOCYTE / NEUTROPHIL / NUCLEATED RED BLOOD CELLS / PLATELET COUNT: tissue Blood; for ALANINE AMINOTRANSFERASE / ALBUMIN / ALKALINE PHOSPHATASE / ASPARTATE AMINOTRANSFERASE / BLOOD UREA NITROGEN / CARBON DIOXIDE / CHLORIDE / CHOLESTEROL / CREATINE PHOSPHOKINASE / CREATININE / GLUCOSE / LACTATE DEHYDROGENASE / LIPASE / PHOSPHORUS / POTASSIUM / SODIUM / TOTAL BILIRUBIN / TOTAL PROTEIN / URIC ACID: tissue Plasma

## COc1ccccc1OCC(O)COC(N)=O (stereo unspecified) [METHOCARBAMOL]
72 h, time 3 day
  ABSOLUTE BASOPHIL: 0 CELLS/uL
  ABSOLUTE EOSINOPHIL: 171.33 CELLS/uL
  ABSOLUTE LYMPHOCYTE: 13776.5 CELLS/uL
  ABSOLUTE MONOCYTE: 180.83 CELLS/uL
  ABSOLUTE SEGMENTED NEUTROPHIL: 1121.33 CELLS/uL
  BASOPHIL: 0%
  EOSINOPHIL: 1%
  ERYTHROCYTE COUNT: 5.56 x10E6/uL
  HEMATOCRIT: 34.75%
  HEMOGLOBIN: 13.68 G/DL
  LEUKOCYTE COUNT: 15.25 x10E3/uL
  LYMPHOCYTE: 90.17%
  MEAN CORPUSCULAR HEMOGLOBIN: 24.6 pg
  MEAN CORPUSCULAR HEMOGLOBIN CONCENTRATION: 39.4 G/DL
  MEAN CORPUSCULAR VOLUME: 62.48 fL
  MONOCYTE: 1.17%
  NEUTROPHIL: 7.67%
  NUCLEATED RED BLOOD CELLS: 0 /100WBC
  PLATELET COUNT: 1342 x10E3/uL
  ALANINE AMINOTRANSFERASE: 49.67 u/L
  ALBUMIN: 4.15 G/DL
  ALKALINE PHOSPHATASE: 346.83 u/L
  ASPARTATE AMINOTRANSFERASE: 108.17 u/L
  BLOOD UREA NITROGEN: 17.33 mg/dL
  CARBON DIOXIDE: 25 mmol/L
  CHLORIDE: 100.83 MEQ/L
  CHOLESTEROL: 66.83 mg/dL
  CREATINE PHOSPHOKINASE: 788 u/L
  CREATININE: 0.18 mg/dL
  GLUCOSE: 151.67 mg/dL
  LACTATE DEHYDROGENASE: 982.5 u/L
  LIPASE: 10.33 u/L
  PHOSPHORUS: 11.23 mg/dL
  POTASSIUM: 6.37 MEQ/L
  SODIUM: 141.02 MEQ/L
  TOTAL BILIRUBIN: 0.18 mg/dL
  TOTAL PROTEIN: 5.9 G/DL
  URIC ACID: 1.8 mg/dL
120 h, time 5 day
  ABSOLUTE BASOPHIL: 0 CELLS/uL
  ABSOLUTE EOSINOPHIL: 69 CELLS/uL
  ABSOLUTE LYMPHOCYTE: 13632.83 CELLS/uL
  ABSOLUTE MONOCYTE: 139.83 CELLS/uL
  ABSOLUTE SEGMENTED NEUTROPHIL: 1225 CELLS/uL
  BASOPHIL: 0%
  EOSINOPHIL: 0.33%
  ERYTHROCYTE COUNT: 5.52 x10E6/uL
  HEMATOCRIT: 33.98%
  HEMOGLOBIN: 13.22 G/DL
  LEUKOCYTE COUNT: 15.07 x10E3/uL
  LYMPHOCYTE: 90.83%
  MEAN CORPUSCULAR HEMOGLOBIN: 23.95 pg
  MEAN CORPUSCULAR HEMOGLOBIN CONCENTRATION: 38.9 G/DL
  MEAN CORPUSCULAR VOLUME: 61.53 fL
  MONOCYTE: 0.83%
  NEUTROPHIL: 8%
  NUCLEATED RED BLOOD CELLS: 0 /100WBC
  PLATELET COUNT: 1196 x10E3/uL
  ALANINE AMINOTRANSFERASE: 49.17 u/L
  ALBUMIN: 4.2 G/DL
  ALKALINE PHOSPHATASE: 352.33 u/L
  ASPARTATE AMINOTRANSFERASE: 89.67 u/L
  BLOOD UREA NITROGEN: 18 mg/dL
  CARBON DIOXIDE: 27.67 mmol/L
  CHLORIDE: 101 MEQ/L
  CHOLESTEROL: 72.83 mg/dL
  CREATINE PHOSPHOKINASE: 417.5 u/L
  CREATININE: 0.18 mg/dL
  GLUCOSE: 150.5 mg/dL
  LACTATE DEHYDROGENASE: 517.33 u/L
  LIPASE: 9 u/L
  PHOSPHORUS: 11.87 mg/dL
  POTASSIUM: 6.57 MEQ/L
  SODIUM: 143.62 MEQ/L
  TOTAL BILIRUBIN: 0.2 mg/dL
  TOTAL PROTEIN: 6.08 G/DL
  URIC ACID: 1.45 mg/dL
